Reference: US5030628A, “N-aryl-azetidinones, their preparation process and their use as elastase inhibitors” (Scientifique, priority 1988, dated 1991)

Test system: trypsin
Experiment: Test as trypsin inhibitors under identical conditions
Type: biochemical
Settings: not given
From the text: (§1) The properties of the N-aryl-azetidinones obtained in examples 4, 5, 6, 7, 11, 17, 22 and 23 are checked and in particular their deactivation capacity for porcine pancreatic elastase (PPE) and human leucocytic elastase (HLE) using the methods of Kitz and Wilson for HLE in the case of compounds 5a, 5c, 5d, 5e, 5a' and 10a, the method of Kitz and Wilson for PPE in the case of compounds 5a, 5c, 5e and 10a and the method of Hart and O'Brian for PPE in the case of compounds 5a and 5'a. All the kinetic measurements are carried out at 37° C. and at a pH of 8 with a 0.1M tris buffer (PPE) or a 0.1M tris buffer, Brij 0.01%, NaN3 0.02% (HLE) (pH 7.5 for compound 5d).
(§2) On testing compounds 5, 5c, 5'a'under identical conditions as chymotrypsin or trypsin inhibitors, it can be seen that they have no action on these enzymes.

| Structure (SMILES) | action on trypsin |
| --- | --- |
| CS(=O)(=O)OCc1ccccc1N1CC(F)(F)C1=O [Compound 5c, N-(2-methanesulphonyloxymethylphenyl)-3,3-difluoro-2-azetidinone] | no action |
| O=C1N(c2ccccc2CCl)CC1(F)Br (stereo not shown) [5'a, N-(2-chloromethylphenyl)-3-fluoro-3bromo-2-azetidinone] | no action |
| O=C1N(c2ccccc2CCl)CC1(F)F [Compound 5a, N-(2-chloromethylphenyl)-3,3-difluoro-2-azetidinone] | no action |

Test system: chymotrypsin
Experiment: Test as chymotrypsin inhibitors under identical conditions
Type: biochemical
Settings: not given
From the text: as §1, §2

| Structure (SMILES) | action on chymotrypsin |
| --- | --- |
| CS(=O)(=O)OCc1ccccc1N1CC(F)(F)C1=O [Compound 5c, N-(2-methanesulphonyloxymethylphenyl)-3,3-difluoro-2-azetidinone] | no action |
| O=C1N(c2ccccc2CCl)CC1(F)Br (stereo not shown) [5'a, N-(2-chloromethylphenyl)-3-fluoro-3bromo-2-azetidinone] | no action |
| O=C1N(c2ccccc2CCl)CC1(F)F [Compound 5a, N-(2-chloromethylphenyl)-3,3-difluoro-2-azetidinone] | no action |

Target: T1, human leucocytic elastase (HLE) (Homo sapiens, UniProt P08246)
T1 sequence (P08246 30-267): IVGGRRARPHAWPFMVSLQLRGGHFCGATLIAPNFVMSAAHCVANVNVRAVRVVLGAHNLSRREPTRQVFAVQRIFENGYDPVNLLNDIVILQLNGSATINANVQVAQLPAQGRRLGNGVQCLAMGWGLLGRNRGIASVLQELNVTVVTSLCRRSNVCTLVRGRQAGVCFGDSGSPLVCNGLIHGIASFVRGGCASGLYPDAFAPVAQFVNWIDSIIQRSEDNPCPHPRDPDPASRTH
Experiment: Deactivation of human leucocytic elastase (HLE), Kitz and Wilson kinetics
Type: biochemical
Settings: not given
Method: (§3) All the kinetic measurements are carried out at 37° C. and at a pH of 8 with a 0.1M tris buffer (PPE) or a 0.1M tris buffer, Brij 0.01%, NaN3 0.02% (HLE) (pH 7.5 for compound 5d). The method of Hart and O'Brian was published in 1973 in Biochemistry, Vol. 12, pp. 2940-2945 and that of Kitz and Wilson in 1962 in J. Biol. Chem., Vol. 237, pp. 3245-3249. In this way the first order constant ki is determined for the formation of the deactivated enzyme and the dissociation constant Ki of the enzyme-inhibitor complex. The ki: Ki ratio is the apparent second order constant characterizing the deactivation.

| deactivation of HLE (in words) | Structure (SMILES) |
| --- | --- |
| deactivate | CS(=O)(=O)OCc1ccccc1N1CC(F)(F)C1=O [Compound 5c, N-(2-methanesulphonyloxymethylphenyl)-3,3-difluoro-2-azetidinone] |
| deactivate | O=C1N(c2ccc(CCl)cc2)CC1(F)F [Compound 10a, N-(4-chloromethylphenyl)-3,3-difluoro-2-azetidinone] |
| deactivate | O=C1N(c2ccccc2CCl)CC1(F)Br (stereo not shown) [5'a, N-(2-chloromethylphenyl)-3-fluoro-3bromo-2-azetidinone] |

| Structure (SMILES) | deactivation of HLE (in words) |
| --- | --- |
| O=C1N(c2ccccc2CCl)CC1(F)F [Compound 5a, N-(2-chloromethylphenyl)-3,3-difluoro-2-azetidinone] | deactivate |

Same assay, conditions: 37° C., pH 7.5 for compound 5d, 0.1M tris buffer, Brij 0.01%, NaN3 0.02%, Kitz and Wilson, read-out: ki/Ki (apparent second order constant characterizing the deactivation), HLE, pH 7.5

| kinact/KI | Structure (SMILES) |
| --- | --- |
| 40 M⁻¹ s⁻¹ | O=C1N(c2ccccc2CBr)CC1(F)F [Compound 5d, N-(2-bromomethylphenyl)-3,3-difluoro-2-azetidinone] |

Same assay, conditions: 37° C., pH 8, 0.1M tris buffer, Brij 0.01%, NaN3 0.02%, Kitz and Wilson, read-out: Ki (dissociation constant of the enzyme-inhibitor complex), HLE

| Ki | Structure (SMILES) |
| --- | --- |
| 500 µM | CS(=O)(=O)OCc1ccccc1N1CC(F)(F)C1=O [Compound 5c, N-(2-methanesulphonyloxymethylphenyl)-3,3-difluoro-2-azetidinone] |
| 500 µM | O=C1N(c2ccccc2CCl)CC1(Cl)Cl [Compound 5e, N-(2-chloromethylphenyl)-3,3-di-chloro-2-azetidinone] |
| 1170 µM | O=C1N(c2ccccc2CCl)CC1(F)Br (stereo not shown) [5'a, N-(2-chloromethylphenyl)-3-fluoro-3bromo-2-azetidinone] |

| Structure (SMILES) | Ki |
| --- | --- |
| O=C1N(c2ccccc2CCl)CC1(F)F [Compound 5a, N-(2-chloromethylphenyl)-3,3-difluoro-2-azetidinone] | 16.6 µM |

Same assay, conditions: 37° C., pH 8, 0.1M tris buffer, Brij 0.01%, NaN3 0.02%, Kitz and Wilson, read-out: ki (first order constant for the formation of the deactivated enzyme), HLE

| kinact | Structure (SMILES) |
| --- | --- |
| 0.05 s⁻¹ | CS(=O)(=O)OCc1ccccc1N1CC(F)(F)C1=O [Compound 5c, N-(2-methanesulphonyloxymethylphenyl)-3,3-difluoro-2-azetidinone] |
| 0.03 s⁻¹ | O=C1N(c2ccccc2CCl)CC1(Cl)Cl [Compound 5e, N-(2-chloromethylphenyl)-3,3-di-chloro-2-azetidinone] |
| 0.37 s⁻¹ | O=C1N(c2ccccc2CCl)CC1(F)Br (stereo not shown) [5'a, N-(2-chloromethylphenyl)-3-fluoro-3bromo-2-azetidinone] |

| Structure (SMILES) | kinact |
| --- | --- |
| O=C1N(c2ccccc2CCl)CC1(F)F [Compound 5a, N-(2-chloromethylphenyl)-3,3-difluoro-2-azetidinone] | 0.005 s⁻¹ |

Same assay, conditions: 37° C., pH 8, 0.1M tris buffer, Brij 0.01%, NaN3 0.02%, Kitz and Wilson, read-out: ki/Ki (apparent second order constant characterizing the deactivation), HLE

| kinact/KI | Structure (SMILES) |
| --- | --- |
| 100 M⁻¹ s⁻¹ | CS(=O)(=O)OCc1ccccc1N1CC(F)(F)C1=O [Compound 5c, N-(2-methanesulphonyloxymethylphenyl)-3,3-difluoro-2-azetidinone] |
| ~1.2 M⁻¹ s⁻¹ | O=C1N(c2ccc(CCl)cc2)CC1(F)F [Compound 10a, N-(4-chloromethylphenyl)-3,3-difluoro-2-azetidinone] |
| 60 M⁻¹ s⁻¹ | O=C1N(c2ccccc2CCl)CC1(Cl)Cl [Compound 5e, N-(2-chloromethylphenyl)-3,3-di-chloro-2-azetidinone] |
| 316 M⁻¹ s⁻¹ | O=C1N(c2ccccc2CCl)CC1(F)Br (stereo not shown) [5'a, N-(2-chloromethylphenyl)-3-fluoro-3bromo-2-azetidinone] |

| Structure (SMILES) | kinact/KI |
| --- | --- |
| O=C1N(c2ccccc2CCl)CC1(F)F [Compound 5a, N-(2-chloromethylphenyl)-3,3-difluoro-2-azetidinone] | 301 M⁻¹ s⁻¹ |

Test system: elastase
Experiment: Effect on the degradation of elastin by elastase
Type: biochemical
Settings: elastase previously incubated for 30 min. in the presence of an elastin excess (2mg)
Method: The effect of compound 5on the degradation of elastin, the natural substrate of elastase in the human organism was tested.

| deactivation of elastase previously incubated with elastin | Structure (SMILES) |
| --- | --- |
| remain capable of deactivating elastase | CS(=O)(=O)OCc1ccccc1N1CC(F)(F)C1=O [Compound 5c, N-(2-methanesulphonyloxymethylphenyl)-3,3-difluoro-2-azetidinone] |
| remain capable of deactivating elastase | O=C1N(c2ccccc2CCl)CC1(F)Br (stereo not shown) [5'a, N-(2-chloromethylphenyl)-3-fluoro-3bromo-2-azetidinone] |

| Structure (SMILES) | deactivation of elastase previously incubated with elastin |
| --- | --- |
| O=C1N(c2ccccc2CCl)CC1(F)F [Compound 5a, N-(2-chloromethylphenyl)-3,3-difluoro-2-azetidinone] | remain capable of deactivating elastase |

Same assay, conditions: elastase previously treated by the compound

| Structure (SMILES) | capacity of treated elastase to degrade elastin |
| --- | --- |
| O=C1N(c2ccccc2CCl)CC1(F)F [Compound 5a, N-(2-chloromethylphenyl)-3,3-difluoro-2-azetidinone] | lost its capacity to degrade elastin |

Test system: elastase
Experiment: Properties with respect to elastase (substrate or inhibitor)
Type: biochemical
Settings: not given
From the text: Thus, the nature of the R^3 substituent has a significant influence on the properties of the product obtained.

| elastase inhibition | elastase substrate | Structure (SMILES) |
| --- | --- | --- |
| not inhibitors | elastase substrates | O=C1N(c2ccc(CF)cc2)CC1(F)F [Compound 10b, N-(4-fluoromethylphenyl)-3,3-difluoro-2-azetidinone] |
| not inhibitors | elastase substrates | O=C1N(c2ccccc2CF)CC1(F)F [Compound 5b, N-(2-fluoromethylphenyl)-3,3-difluoro-2-azetidinone] |

Test system: not listed separately
Experiment: Acute toxicity in male and female mice
Settings: mouse, in vivo
Method: The acute toxicity of compound 5a researched on male and female mice exceeds 200 mg/kg.

| Structure (SMILES) | LD50 |
| --- | --- |
| O=C1N(c2ccccc2CCl)CC1(F)F [Compound 5a, N-(2-chloromethylphenyl)-3,3-difluoro-2-azetidinone] | > 200 mg/kg |

Target: porcine pancreatic elastase (PPE) (Sus scrofa, UniProt P00772)
Sequence (P00772 27-266): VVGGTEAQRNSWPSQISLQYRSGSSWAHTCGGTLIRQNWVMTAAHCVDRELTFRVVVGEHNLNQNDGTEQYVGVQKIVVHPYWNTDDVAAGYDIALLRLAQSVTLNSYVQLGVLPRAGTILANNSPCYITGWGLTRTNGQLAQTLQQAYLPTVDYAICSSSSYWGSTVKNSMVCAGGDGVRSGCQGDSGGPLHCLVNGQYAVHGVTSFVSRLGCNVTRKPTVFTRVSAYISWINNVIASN
Experiment: Deactivation of porcine pancreatic elastase (PPE), Kitz and Wilson / Hart and O'Brian kinetics
Type: biochemical
Settings: not given
Method: as §3

| deactivation of PPE (in words) | Structure (SMILES) |
| --- | --- |
| deactivate | CS(=O)(=O)OCc1ccccc1N1CC(F)(F)C1=O [Compound 5c, N-(2-methanesulphonyloxymethylphenyl)-3,3-difluoro-2-azetidinone] |
| deactivate | O=C1N(c2ccc(CCl)cc2)CC1(F)F [Compound 10a, N-(4-chloromethylphenyl)-3,3-difluoro-2-azetidinone] |
| deactivate | O=C1N(c2ccccc2CCl)CC1(F)Br (stereo not shown) [5'a, N-(2-chloromethylphenyl)-3-fluoro-3bromo-2-azetidinone] |

| Structure (SMILES) | deactivation of PPE (in words) |
| --- | --- |
| O=C1N(c2ccccc2CCl)CC1(F)F [Compound 5a, N-(2-chloromethylphenyl)-3,3-difluoro-2-azetidinone] | deactivate |

Same assay, conditions: 37° C., pH 8, 0.1M tris buffer, Kitz and Wilson (5a, 5c, 5e, 10a), Hart and O'Brian (5a, 5'a), read-out: Ki (dissociation constant of the enzyme-inhibitor complex), PPE

| Ki | Structure (SMILES) |
| --- | --- |
| 48 µM | CS(=O)(=O)OCc1ccccc1N1CC(F)(F)C1=O [Compound 5c, N-(2-methanesulphonyloxymethylphenyl)-3,3-difluoro-2-azetidinone] |
| 660 µM | O=C1N(c2ccc(CCl)cc2)CC1(F)F [Compound 10a, N-(4-chloromethylphenyl)-3,3-difluoro-2-azetidinone] |
| 590 µM | O=C1N(c2ccccc2CCl)CC1(Cl)Cl [Compound 5e, N-(2-chloromethylphenyl)-3,3-di-chloro-2-azetidinone] |
| 8.5 µM | O=C1N(c2ccccc2CCl)CC1(F)Br (stereo not shown) [5'a, N-(2-chloromethylphenyl)-3-fluoro-3bromo-2-azetidinone] |

| Structure (SMILES) | Ki |
| --- | --- |
| O=C1N(c2ccccc2CCl)CC1(F)F [Compound 5a, N-(2-chloromethylphenyl)-3,3-difluoro-2-azetidinone] | 30 µM |

Same assay, conditions: 37° C., pH 8, 0.1M tris buffer, Kitz and Wilson (5a, 5c, 5e, 10a), Hart and O'Brian (5a, 5'a), read-out: ki (first order constant for the formation of the deactivated enzyme), PPE

| kinact | Structure (SMILES) |
| --- | --- |
| 0.017 s⁻¹ | CS(=O)(=O)OCc1ccccc1N1CC(F)(F)C1=O [Compound 5c, N-(2-methanesulphonyloxymethylphenyl)-3,3-difluoro-2-azetidinone] |
| 0.075 s⁻¹ | O=C1N(c2ccc(CCl)cc2)CC1(F)F [Compound 10a, N-(4-chloromethylphenyl)-3,3-difluoro-2-azetidinone] |
| 0.028 s⁻¹ | O=C1N(c2ccccc2CCl)CC1(Cl)Cl [Compound 5e, N-(2-chloromethylphenyl)-3,3-di-chloro-2-azetidinone] |
| 0.048 s⁻¹ | O=C1N(c2ccccc2CCl)CC1(F)Br (stereo not shown) [5'a, N-(2-chloromethylphenyl)-3-fluoro-3bromo-2-azetidinone] |

| Structure (SMILES) | kinact |
| --- | --- |
| O=C1N(c2ccccc2CCl)CC1(F)F [Compound 5a, N-(2-chloromethylphenyl)-3,3-difluoro-2-azetidinone] | 0.031 s⁻¹ |

Same assay, conditions: 37° C., pH 8, 0.1M tris buffer, read-out: ki/Ki (apparent second order constant characterizing the deactivation), PPE

| kinact/KI | Structure (SMILES) |
| --- | --- |
| 354 M⁻¹ s⁻¹ | CS(=O)(=O)OCc1ccccc1N1CC(F)(F)C1=O [Compound 5c, N-(2-methanesulphonyloxymethylphenyl)-3,3-difluoro-2-azetidinone] |
| 113 M⁻¹ s⁻¹ | O=C1N(c2ccc(CCl)cc2)CC1(F)F [Compound 10a, N-(4-chloromethylphenyl)-3,3-difluoro-2-azetidinone] |
| 47 M⁻¹ s⁻¹ | O=C1N(c2ccccc2CCl)CC1(Cl)Cl [Compound 5e, N-(2-chloromethylphenyl)-3,3-di-chloro-2-azetidinone] |
| 5650 M⁻¹ s⁻¹ | O=C1N(c2ccccc2CCl)CC1(F)Br (stereo not shown) [5'a, N-(2-chloromethylphenyl)-3-fluoro-3bromo-2-azetidinone] |

| Structure (SMILES) | kinact/KI |
| --- | --- |
| O=C1N(c2ccccc2CCl)CC1(F)F [Compound 5a, N-(2-chloromethylphenyl)-3,3-difluoro-2-azetidinone] | 1030 M⁻¹ s⁻¹ |
